Measured values taken from article PMC8959664, “Elucidating Therapeutic and Biological Potential of Berberis baluchistanica Ahrendt Bark, Leaf, and Root Extracts” (Frontiers in Microbiology, 2022).

System: T1, trypsin
T1 construct: gene PRSS1; commercial-type enzyme; bovine is only a guess (porcine equally possible)
Assay: casein digestion, perchloric acid precipitation, absorbance […] nm
Type: biochemical
Conditions: casein 0.8% substrate, Tris-HCl pH 7.4, 37°C, 5 min preincubation

Protein inhibition denaturation IC50: 430 ± 100 µg/mL
SMILES: CC(=O)Oc1ccccc1C(=O)O [aspirin]
